Laboratory results from US20230233583A1, “USE OF PHYTOCANNABINOIDS FOR TREATING MULTIPLE MYELOMA” (priority 2020, published 2023).

Legend:
RPMI = assay: Invasion assay in co-culture of HuOB and RPMI; format: cell-based, human; settings: for effect on MM cell invasion, in words: RPMI in co-culture with HuOB, 24 hours
Description: (§1) Invasion assay: HuOB cells (1.5×10^4) were plated on the surface of Matrigel in a BioCoat™ Matrigel® Invasion Chamber, 8.0 μm PET Membrane (Coming®, cod. 354480) and incubated for two days. After, U266 and RPMI (2.5×10^4) were pre-stained with Calcein (1 μM) for two hours, then treated with CBG (12.5 μM), CBC (12.5 μM), CBN (12.5 μM) and CBDV (6.25 μM) and added in the chambers. MM cells with HuOB, untreated, were used as invasion positive control, MM cells without HuOB cells were used as negative control. After 24 hours, the number of MM cells that invaded the Matrigel were analysed via fluorescent microscope. Eight 10× sections images were counted for each chamber.
(§2) Invasion assay in co-culture of HuOB and MM cell lines: This study evaluated the effect of phytocannabinoids in reducing the invasion of MM cell lines toward HuOB. HuOB were plated on the surface of Matrigel in the BioCoat™ Matrigel® Invasion Chamber, 8.0 μm PET Membrane (Corning®, cod. 354480) and incubated for two days. After, U266 or RPMI were pre-stained with Calcein (10 μM) for two hours, then treated with CBG (25 μM), CBC (25 μM), CBN (25 μM) and CBDV (12.5 μM) and added in the chambers. MM cells with HuOB, untreated, were used as an invasion positive control, MM cells without HuOB cells were used as a negative control. After 24 hours, the number of MM cells that invaded the Matrigel were analysed via fluorescent microscope. Eight 10× sections images were counted for each chamber.

U266 [1] = assay: Invasion assay in co-culture of HuOB and U266; format: cell-based, human; settings: 24 hours; for AVERAGE OF CELLS/square (MM cells that invaded the Matrigel): U266 + HuOB co-culture, CBG, CBC, CBN 12.5 μM, CBDV 6.25 μM or 25 μM and 12.5 μM, untreated U266 + HuOB 14.2 ± 0.9; for effect on MM cell invasion, in words: U266 in co-culture with HuOB
Description: as §1, §2

U266 [2] = assay: MTT cytotoxicity assay in U266 MM cell line; settings: for IC50: Homo sapiens, U-266, 72 h, read-out: IC50 (μM) ± S.D.; for % VIABILITY ± S.D.: daily, 72 hours, vs vehicle
Description: (§3) MTT cytotoxicity assay: MM cell lines (4×10^4 cells/ml) were seeded in 96-well plates, in a final volume of 100 μl/well. After 24 hours, CBG, CBC, CBN, CBDV alone and in combination or vehicle were added at different concentrations, for 72 hours. At least six replicates were used for each treatment. At the indicated time point, cell viability was assessed by adding 0.8 mg/ml of 3-[4,5-dimethylthiazol-2-yl]-2,5 diphenyl tetrazolium bromide (MTT) (Sigma-Aldrich) to the media. After 3 hours, the plates were centrifuged, the supernatant was removed, and the pellet was solubilized with 100 μl/well dimethyl sulfoxide (DMSO). The absorbance of the samples against a background control (medium alone) was measured at 570 nm using an ELISA reader microliter plate (BioTek™ Instruments, Winooski, Vt., USA).
(§4) Cells were treated with different doses of CBG, CBC, CBN and CBDV (up to 100 μM) and percentage of cell viability was evaluated by the MTT assay.
(§5) The cannabinoids were administered daily for 72 hours, as in previous experiments at the desired doses. Each combination was evaluated in six wells and in two separate experiments. MTT assay was used to analyze the cell cytotoxicity. The values in the tables are represented as % of cell viability compared to vehicle-treated cells.

SKO = assay: MTT cytotoxicity assay in SKO MM cell line; settings: for IC50: Homo sapiens, 72 h, read-out: IC50 (μM) ± S.D.; for % VIABILITY ± S.D.: SKO, daily, 72 hours, vs vehicle
Description: as §3, §4, §5

[3] = system: H2AX levels in MM cell lines; assay: Western blot analysis for H2AX; format: cell-based, human; settings: 48 hours, daily; CBG, CBN, CBDV 25 μM, CBC 75 μM
Description: 4×10^4 cells were plated in 6 well plates and treated for 48 hours with daily administration of CBG (25 μM; FIG. 17), CBC (75 μM; FIG. 18), CBN (25 μM; FIG. 19) or CBDV (25 μM; FIG. 20). Densitometric analysis was carried out by evaluating two independent experiments by a Chemidoc using the Quantity One software (BioRad, Hercules, USA). H2AX densitometry values were normalized to GAPDH used as loading control and normalized with non-treated cells. Densitometric values shown are the mean±SE of two separate experiments.
Western blot analysis for H2AX: 4×10^4 cells were plated in 6-well plates and treated daily for 48 hours with CBG, CBN or CBDV (25 μM) or CBC (75 μM). Ten micrograms of the myeloma cell line lysates were then separated on a SDS-polyacrylamide gel, transferred onto Hybond-C extra membranes (GE Healthcare), blocked with 5% of Bovine Serum Albumin (BSA) in phosphate buffered saline (PBS)-Tween 20, immunoblotted with rabbit anti-phospho-histone H2AX (Ser139) (1:1000, #9718, Cell Signaling) and rabbit anti-glyceraldehyde-3-phosphate dehydrogenase (GAPDH, 1:3000, #2118, OriGene, Rockville, Md., USA) antibodies incubated overnight and then incubated with their respective HRP-conjugated anti-rabbit (1:2000, Cell Signaling) antibodies for 1 hour. The detection was performed using the LiteAblot™ PLUS or the LiteAblot™ TURBO (EuroClone, Milano, Italy) kits and densitometric analysis was carried out by evaluating three independent experiments by a Chemidoc using the Quantity One software (BioRad, Hercules, USA). H2AX densitometry values were normalized to GAPDH used as loading control and normalized with non-treated cells. Densitometric values shown are the mean±SE of three separate experiments.
Phytocannabinoids induce necrotic cell death in MM cell lines: To evaluate the cytotoxic mechanism induced by the phytocannabinoids, MM cell lines were treated daily with a cytotoxic dose for each phytocannabinoid (CBG: 25 μM; CBC 75 μM; CBN 25 μM; CBDV 25 μM) for 48 hours and then Annexin-V/PI cell positivity was evaluated by FACS analysis. The results evidenced that all of the phytocannabinoids induced necrotic cell death but had different efficacies (FIGS. 5-16). To confirm the necrotic cell death mechanism, MM cell lines were treated as above and DNA damage was evaluated by H2AX (a marker to examine the DNA damage produced and the subsequent repair of the DNA lesion) Western blot analysis and Comet assay (permits the analysis of DNA damage in single cell preparations). The result confirmed the DNA damage induced by the phytocannabinoid analysed. In particular, an increase of H2AX levels were observed by Western blot (FIGS. 17-20) and DNA damage by Comet assay that evidenced structures resembling comets in the treated cell lines (FIGS. 21-24).

[4] = U266, single phytocannabinoid 12.5 μM
[5] = U266, single phytocannabinoid 25 μM
[6] = single phytocannabinoid 12.5 μM

Row | Compound | AVERAGE OF CELLS/square (MM cells that invaded the Matrigel) (RPMI) [CELLS/square] | effect on MM cell invasion, in words (RPMI) | AVERAGE OF CELLS/square (MM cells that invaded the Matrigel) (U266 [1]) [CELLS/square] | effect on MM cell invasion, in words (U266 [1]) | IC50 (U266 [2]) [µM] | % VIABILITY ± S.D. (U266 [2]; [4]) [%] | % VIABILITY ± S.D. (U266 [2]; [5]) [%] | IC50 (SKO) [µM] | % VIABILITY ± S.D. (SKO; [6]) [%] | % VIABILITY ± S.D. (SKO; single phytocannabinoid 25 μM) [%] | H2AX levels by Western blot, in words [3]
1 | CCCCCc1cc(O)c2c(c1)OC(C)(C)c1ccc(C)cc1-2 [CBN, 6,6,9-trimethyl-3-pentylbenzo[c]chromen-1-ol] | 3.3 ± 0.1 | higher activity | 7.0 ± 0.2 | higher activity | 26.5 ± 1.8 | 89.6 ± 6.6 | 61.1 ± 4.8 | 28.5 ± 2.2 | 89.2 ± 5.9 | 60.6 ± 3.8 | increased H2AX levels
2 | C=C(C)[C@@H]1CCC(C)=C[C@H]1c1c(O)cc(CCC)cc1O [CBDV, 2-[(1R,6R)-3-methyl-6-prop-1-en-2-ylcyclohex-2-en-1-yl]-5-propylbenzene-1,3-diol] | 35.6 ± 2.4 | – | 11.2 ± 1.1 | – | 26.7 ± 1.3 | 88.6 ± 7.2 | 76.2 ± 6.5 | 26.5 ± 2.1 | 82.1 ± 5.2 | 54.6 ± 4.4 | increased H2AX levels
3 | CCCCCc1cc(O)c2c(c1)OC(C)(CCC=C(C)C)C=C2 (stereo not shown) [CBC, 2-methyl-2-(4-methylpent-3-enyl)-7-pentylchromen-5-ol] | 29.3 ± 1.7 | – | 12.5 ± 1.1 | – | 78.8 ± 3.4 | 106.2 ± 3.5 | 101.2 ± 7.2 | 69.7 ± 3.5 | 96.5 ± 6.7 | 94.3 ± 6.3 | increased H2AX levels
4 | CCCCCc1cc(O)c(C/C=C(\C)CCC=C(C)C)c(O)c1 [CBG, 2-[(2E)-3,7-dimethylocta-2,6-dienyl]-5-pentylbenzene-1,3-diol] | 1.6 ± 0.2 | higher activity | 3.2 ± 0.2 | higher activity | 35.9 ± 2.2 | 97.4 ± 6.5 | 87.7 ± 5.8 | 35 ± 1.8 | 105.4 ± 4.4 | 84.6 ± 5.5 | increased H2AX levels
